Measurements reported in PubChem BioAssay AID488836 (Broad Institute, 2010).
Inconclusive results are not listed. Calls of active or inactive are those of the source. The rule behind the calls is not given here.

Key:
PubChem AID 488836 = conditions: C. albicans CaCi-2 growth with fluconazole, Alamar Blue, 48 h
[1] = test system: C. albicans CaCi-2 (fluconazole-resistant clinical isolate) growth with fluconazole, Alamar Blue, 48 h; assay: PubChem AID 488836

With `COc1ccc(OC)c2c(C)cc(N3CCN(C(=O)c4ccc(Cl)cc4)CC3)nc12` as the molecule, how does the activity change, negative = inhibition (PubChem AID 488836; at 6 µM (top of the series)) read?
The activity change, negative = inhibition was -2.61% (inactive).

For `O=C(Cn1c2ccccc2c2nc3n(c(=O)c21)CCCS3)c1ccc(F)cc1`, which activity change, negative = inhibition (PubChem AID 488836; at 6 µM (top of the series)) is on record?
Its activity change, negative = inhibition is -14.2% (inactive).

For `O=C(O)c1nn(Cc2ccc(Cl)cc2)c2ccccc12`, which activity change, negative = inhibition (PubChem AID 488836; at 6 µM (top of the series)) is on record?
Its activity change, negative = inhibition is -11.2% (inactive).

With `COc1ccc2c(c1)c1nc3n(c(=O)c1n2CC(=O)N1CCC(C)CC1)CCS3` as the molecule, how does the activity change, negative = inhibition (PubChem AID 488836; at 0.6 µM (top of the series)) read?
Its activity change, negative = inhibition is 13.2% (inactive).

For `CCOC(=O)c1c2ccccc2nn1Cc1ccc(Cl)cc1`, which activity change, negative = inhibition (PubChem AID 488836; at 6 µM (top of the series)) is on record?
Its activity change, negative = inhibition is -7.34% (inactive).

With `O=C(c1ccc(Cl)cc1)N1CCN(c2cc(C(F)(F)F)nc3ccccc23)CC1` as the molecule, how does the activity change, negative = inhibition (PubChem AID 488836; at 6 µM (top of the series)) read?
The activity change, negative = inhibition was -20% (inactive).

For `c1ccc(-c2n[nH]c3ccccc23)cc1`, which activity change, negative = inhibition (PubChem AID 488836; at 6 µM (top of the series)) is on record?
Its activity change, negative = inhibition is 4.54% (inactive).

Which AC50 [1] does the source give for `COc1ccc(NC(=O)Cn2c3ccccc3c3nc4n(c(=O)c32)CCS4)cc1` here?
Its AC50 is 4.1 µM.

For `O=C(c1ccccc1)N1CCN(c2ccnc3cc(Cl)ccc23)CC1`, which AC50 [1] is on record?
Its AC50 is 3.35 µM.

For `Cc1ccc(C(=O)N2CCN(c3ccnc4cc(Cl)ccc34)CC2)cc1`, which AC50 [1] is on record?
The AC50 was 2.33 µM.

With `CCCNC(=O)Cn1nc(-c2ccccc2)c2cc(Cl)ccc21` as the molecule, how does the activity change, negative = inhibition (PubChem AID 488836; at 6 µM (top of the series)) read?
Its activity change, negative = inhibition is 38.1% (inactive).

For `O=c1c2[nH]c3ccc(F)cc3c2nc2n1CCS2`, which AC50 [1] is on record?
Its AC50 is 4.08 µM.

Which AC50 [1] does the source give for `CC1CCN(C(=O)Cn2c3ccccc3c3nc4n(c(=O)c32)CCS4)CC1` here?
Its AC50 is 2.94 µM.

With `CC1CCN(C(=O)Cn2c3ccc(F)cc3c3nc4n(c(=O)c32)CCCS4)CC1` as the molecule, how does the AC50 [1] read?
The AC50 was 3.54 µM.

Which activity change, negative = inhibition (PubChem AID 488836; at 6 µM (top of the series)) does the source give for `O=C(Cn1nc(-c2ccccc2)c2ccccc21)NCc1ccc(Cl)cc1` here?
The activity change, negative = inhibition was -18.4% (inactive).

Which activity change, negative = inhibition (PubChem AID 488836; at 6 µM (top of the series)) does the source give for `COC(=O)Cn1nc(C)c2ccccc21` here?
The activity change, negative = inhibition was -0.315% (inactive).

With `COc1ccc2c(c1)c1nc3n(c(=O)c1n2CC(=O)N1CCC(Cc2ccccc2)CC1)CCS3` as the molecule, how does the activity change, negative = inhibition (PubChem AID 488836; at 6 µM (top of the series)) read?
Its activity change, negative = inhibition is -7.32% (inactive).

For `CC1CCN(C(=O)Cn2c3ccccc3c3nc4n(c(=O)c32)CCCS4)CC1`, which AC50 [1] is on record?
Its AC50 is > 6 µM (inactive).

With `O=C(Cn1nc(-c2ccccc2)c2ccccc21)N1CCc2ccccc2C1` as the molecule, how does the activity change, negative = inhibition (PubChem AID 488836; at 6 µM (top of the series)) read?
The activity change, negative = inhibition was -26.7% (inactive).

For `CCCNC(=O)Cn1nc(-c2ccccc2)c2ccccc21`, which activity change, negative = inhibition (PubChem AID 488836; at 6 µM (top of the series)) is on record?
The activity change, negative = inhibition was 12.1% (inactive).

With `COC(=O)Cn1nc(-c2ccccc2)c2ccccc21` as the molecule, how does the AC50 [1] read?
The AC50 was 1.26 µM.

For `O=C(c1cccs1)N1CCN(c2ccnc3cc(Cl)ccc23)CC1`, which AC50 [1] is on record?
Its AC50 is 2.72 µM.

With `O=c1c2[nH]c3ccccc3c2nc2n1CCS2` as the molecule, how does the activity change, negative = inhibition (PubChem AID 488836; at 6 µM (top of the series)) read?
Its activity change, negative = inhibition is -39.9% (inactive).

Which activity change, negative = inhibition (PubChem AID 488836; at 6 µM (top of the series)) does the source give for `O=C(O)c1c2ccccc2nn1Cc1ccc(Cl)cc1` here?
The activity change, negative = inhibition was -8.46% (inactive).

For `O=C(Nc1ccc(C(F)(F)F)cc1)N1CCN(c2ccnc3cc(Cl)ccc23)CC1`, which AC50 [1] is on record?
The AC50 was 1.81 µM.

With `Cc1nn(S(C)(=O)=O)c2ccccc12` as the molecule, how does the activity change, negative = inhibition (PubChem AID 488836; at 6 µM (top of the series)) read?
The activity change, negative = inhibition was -21% (inactive).

Which activity change, negative = inhibition (PubChem AID 488836; at 6 µM (top of the series)) does the source give for `O=C(Cn1nc(C(=O)N2CCCCC2)c2ccccc21)N1CCOCC1` here?
The activity change, negative = inhibition was -5.52% (inactive).

With `COC(=O)Cn1nc(-c2ccc(C)cc2)c2ccccc21` as the molecule, how does the AC50 [1] read?
Its AC50 is 0.103 µM.

Which AC50 [1] does the source give for `O=C(c1csc2ccccc12)N1CCN(c2ccnc3cc(Cl)ccc23)CC1` here?
The AC50 was 1.68 µM.

With `CCN(CC)C(=O)Cn1c2ccccc2c2nc3n(c(=O)c21)CCS3` as the molecule, how does the AC50 [1] read?
Its AC50 is 2.28 µM.

With `O=C(Cn1nc(-c2ccccc2)c2cc(Cl)ccc21)N1CCOCC1` as the molecule, how does the activity change, negative = inhibition (PubChem AID 488836; at 6 µM (top of the series)) read?
The activity change, negative = inhibition was -5.03% (inactive).

For `O=C(c1ccc(Cl)c(Cl)c1)N1CCN(c2ccnc3cc(Cl)ccc23)CC1`, which AC50 [1] is on record?
The AC50 was 1.02 µM.

Which activity change, negative = inhibition (PubChem AID 488836; at 6 µM (top of the series)) does the source give for `CCOC(=O)c1nn(Cc2ccc(Cl)cc2)c2ccccc12` here?
Its activity change, negative = inhibition is -6.26% (inactive).

With `O=C(c1ccc(Cl)cc1)N1CCN(c2ccnc3cc(Cl)ccc23)CC1` as the molecule, how does the AC50 [1] read?
The AC50 was 0.651 µM.

With `O=S(=O)(c1ccc(Cl)cc1)N1CCN(c2ccnc3cc(Cl)ccc23)CC1` as the molecule, how does the activity change, negative = inhibition (PubChem AID 488836; at 6 µM (top of the series)) read?
Its activity change, negative = inhibition is -15.5% (inactive).

With `COC(=O)Cn1nc(-c2ccc(Cl)cc2)c2ccccc21` as the molecule, how does the activity change, negative = inhibition (PubChem AID 488836; at 6 µM (top of the series)) read?
The activity change, negative = inhibition was -11% (inactive).

Which AC50 [1] does the source give for `O=C(c1ccc(Cl)cc1)N1CCN(c2ccc(Cl)cc2)CC1` here?
Its AC50 is 6.13 µM.

With `O=C(Cn1c2ccccc2c2nc3n(c(=O)c21)CCS3)NCCc1ccc(Cl)cc1` as the molecule, how does the activity change, negative = inhibition (PubChem AID 488836; at 6 µM (top of the series)) read?
Its activity change, negative = inhibition is -13.4% (inactive).

For `O=C(Cn1c2ccccc2c2nc3n(c(=O)c21)CCS3)N1CCCC1`, which AC50 [1] is on record?
Its AC50 is 2.29 µM.
